Experimental data from patent publication US20220275534A1, “Peptide Library Production Method” (The University of Tokyo, priority 2018, published 2022).
Positions of bridges follow the written chain, without caps; N, C: chain ends. Non-standard residues stand in square brackets, D forms with d. No end group written: not given here. *: point of attachment. prenyl = prenyl group added to Trp by KgpF, CC(C)=CC*

What was measured:
KgpF = assay: Prenylation of artificial cyclic peptides with 160 μM KgpF at 0° C., 20 hours (Conditions 13/14 and 19/20; Examples 10, 14, 19; Tables 6 and 18); type: biochemical, Microcystis aeruginosa; parameters: key: 5: strong intensity; 4: medium intensity; 3: weak intensity; 2: very weak intensity; 1: no peak; N/A: not observed; conditions: for MALDI-TOF-MS peak intensity, Number of additions 1 / MALDI-TOF-MS peak intensity, Number of additions 2 / MALDI-TOF-MS peak intensity, Number of additions 0 / MALDI-TOF-MS peak intensity, Number of additions 3: Table 6, 160 μM KgpF, 2 mM DMAPP, 0° C., 20 hours; for MALDI-TOF-MS peak intensity, Number of additions 1: 1 prenyl added; for MALDI-TOF-MS peak intensity, Number of additions 2: 2 prenyl added; for MALDI-TOF-MS peak intensity, Number of additions 0: unmodified peptide peak; for MALDI-TOF-MS peak intensity, Number of additions 3: 3 prenyl added
Chain of KgpF (as listed by the source): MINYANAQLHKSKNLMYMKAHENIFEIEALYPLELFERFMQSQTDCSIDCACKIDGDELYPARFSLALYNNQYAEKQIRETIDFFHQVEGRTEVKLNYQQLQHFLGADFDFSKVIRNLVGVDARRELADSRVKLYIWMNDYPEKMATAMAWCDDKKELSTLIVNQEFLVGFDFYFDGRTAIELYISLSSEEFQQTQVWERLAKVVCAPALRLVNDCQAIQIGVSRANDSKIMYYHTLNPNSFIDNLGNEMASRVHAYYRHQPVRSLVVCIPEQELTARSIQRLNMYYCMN
Method: The artificial cyclic peptides Clone-M1 to M9 shown below were obtained by translation and synthesis in the artificial translation system (Conditions 13) developed by the present inventors. The peptides thus obtained were then reacted with 160 μM KgpF in the system shown in (Conditions 14) at 0° C. for 20 hours.
(Conditions 13) • FIT system: v8s/v11.0 • 19aa-Met: 0.5 mM • ClAc-D-Tyr-tRNA^fMetCUA: 90 μM • Reaction: 37° C., 60 min. • Scale: 2.5 μL scale
After the above reaction was performed, the reaction product was incubated at 25° C. for 12 minutes.
Then, a cyclization reaction was performed under the following conditions. • Translated mixture amount: 2.5 μL (mixture obtained by the above reaction) • EDTA: 18 mM • Reaction: 42° C., 60 min. • Scale: 2.75 μL scale
(Conditions 14) • Translated mixture amount: 2.75 μL (mixture obtained under (Conditions 13)) • KOH: 6.0 mM • Mg(OAc)2: 9.0 mM • Tris-HCl (pH 8.3) 15 mM • KgpF: 160 μM • DMAPP: 2 mM • Reaction: 0° C., 20 hours
The artificial cyclic peptides shown below were obtained by translation and synthesis in the artificial translation system (Conditions 19) developed by the present inventors. The peptides thus obtained were then reacted with 160 μM KgpF in the system shown in (Conditions 20) at 0° C. for 20 hours.
(Conditions 19) • FIT system: v8s/11.0 • 19aa-Met: 0.5 mM • ClAc-D-Tyr-tRNA^fMetCUA: 90 μM • Reaction: 37° C., 60 min. • Scale: 2.5 μL scale
(Conditions 20) • Translated mixture amount: 2.75 μL (mixture obtained under (Conditions 19)) • KOH: 6.0 mM • Mg(OAc)2: 9.0 mM • Tris-HCl (pH 8.3): 15 mM • KgpF: 160 μM • DMAPP: 2 mM • Reaction: 0° C., 20 hours
Then, the compound library was provided for a step of screening cyclic peptides having interaction with an enzyme MetAP1 (Human) as in the scheme shown in FIG. 8. It has been confirmed that with regards to some of the peptides shown in FIG. 10, peptides having these sequences are modified by prenylation as shown in Table 18 by bringing them into contact with KgpF under conditions shown in (Conditions 13) and (Conditions 14).

OltF v 2.1 = assay: Modification test of thioether-closed artificial cyclic peptides with 9.13 μM OltF v 2.1 (Example 16; Tables 11 and 12); type: biochemical, Planktothrix; parameters: key: 5: strong intensity; 4: medium intensity; 3: weak intensity; 2: very weak intensity; 1: no peak; N/A: not observed; conditions: OltF v 2.1 9.13 μM, DMAPP 2 mM, 37° C., 18 hours
Chain of OltF v 2.1 (as listed by the source): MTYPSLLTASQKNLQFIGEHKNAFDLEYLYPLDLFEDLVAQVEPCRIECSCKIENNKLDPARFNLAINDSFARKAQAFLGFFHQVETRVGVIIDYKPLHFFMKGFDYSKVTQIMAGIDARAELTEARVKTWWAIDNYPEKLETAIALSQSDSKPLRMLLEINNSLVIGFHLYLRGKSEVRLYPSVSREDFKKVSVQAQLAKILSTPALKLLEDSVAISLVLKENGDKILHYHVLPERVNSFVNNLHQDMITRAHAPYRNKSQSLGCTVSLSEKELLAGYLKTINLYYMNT
Method: The artificial cyclic peptides shown in Table 11 and Table 12 were obtained by translation and synthesis in the artificial translation system (Conditions 23) developed by the present inventors. The peptides thus obtained were then reacted with 9.13 μM OltF in the system shown in (Conditions 24) at 37° C. for 18 hours. It is to be noted that OltF v 2.1 is an enzyme prepared from OltF used in (Conditions 22) while changing a purification manner.
(Conditions 23) • FIT system: v8s/v11.1 • 19aa-Met: 0.5 mM • ClAc-D or L-Tyr-tRNA^fMetCUA: 90 μM • Reaction: 37° C., 60 min. • Scale: 2.5 μL scale
(Conditions 24) • Translated mixture amount: 2.5 μL (mixture obtained under (Conditions 23)) • OltF v 2.1: 9.13 μM • DMAPP: 2 mM • Reaction: 37° C., 18 hours

[1] = Table 18, Conditions 13 and 14 (160 μM KgpF, 0° C., 20 hours), NSGGVS added to C terminal

Clone-M1: artificial cyclic peptide containing a plurality of Trps ([dY]LRLNHTWSTWTSC; thioether (positions not given here); not fully specified (N-terminus, bridges); also: cyclic)
MALDI-TOF-MS peak intensity, Number of additions 1 (KgpF): 1 | MALDI-TOF-MS peak intensity, Number of additions 2 (KgpF): 5 | MALDI-TOF-MS peak intensity, Number of additions 0 (KgpF): 1

DNT061 (Ac-[dY]NNRERGSDFFWFFPC; thioether (positions not given here); not fully specified (bridges))
Peak intensity, The number of prenyl groups added 0 (OltF v 2.1; Table 12): 2 | Peak intensity, The number of prenyl groups added 1 (OltF v 2.1; Table 12): 5

YG297 ({CH2CO}-[dY]RQFNRRTHEVWNLDC; thioether N-16 (inferred))
Peak intensity, The number of prenyl groups added 0 (OltF v 2.1; Table 11): 5 | Peak intensity, The number of prenyl groups added 1 (OltF v 2.1; Table 11): 4

YG292 ({CH2CO}-[dY]IRRPWVPIIYLGC; thioether N-14 (inferred))
Peak intensity, The number of prenyl groups added 0 (OltF v 2.1; Table 11): 2 | Peak intensity, The number of prenyl groups added 1 (OltF v 2.1; Table 11): 5

DNT062 (Ac-[dY]NNRERGSDGGWGGPC; thioether (positions not given here); not fully specified (bridges))
Peak intensity, The number of prenyl groups added 0 (OltF v 2.1; Table 12): 3 | Peak intensity, The number of prenyl groups added 1 (OltF v 2.1; Table 12): 5

YG288 ({CH2CO}-[dY]SNFRIWRYSNSSC; thioether N-14 (inferred))
Peak intensity, The number of prenyl groups added 0 (OltF v 2.1; Table 11): 1 | Peak intensity, The number of prenyl groups added 1 (OltF v 2.1; Table 11): 5

DNT063 (Ac-[dY]NNRERGSDYYWYYPC; thioether (positions not given here); not fully specified (bridges))
Peak intensity, The number of prenyl groups added 0 (OltF v 2.1; Table 12): 2 | Peak intensity, The number of prenyl groups added 1 (OltF v 2.1; Table 12): 5

Clone-M6: artificial cyclic peptide containing a plurality of Trps (Ac-[dY]ILSQENHVWSLWC; thioether (positions not given here); not fully specified (bridges))
MALDI-TOF-MS peak intensity, Number of additions 1 (KgpF): 5 | MALDI-TOF-MS peak intensity, Number of additions 2 (KgpF): 5 | MALDI-TOF-MS peak intensity, Number of additions 0 (KgpF): 1

DNT070 ({CH2CO}-[dY]ISWNEFNSYFWLPITC; thioether N-17 (inferred); not fully specified)
Peak intensity, The number of prenyl groups added 0 (OltF v 2.1; Table 12): 1 | Peak intensity, The number of prenyl groups added 1 (OltF v 2.1; Table 12): 5 | Peak intensity, The number of prenyl groups added 2 (OltF v 2.1; Table 12): 1

YG299 (Ac-[dY]CDVSGRWGYFPC; thioether (positions not given here); not fully specified (bridges))
Peak intensity, The number of prenyl groups added 0 (OltF v 2.1; Table 11): 3 | Peak intensity, The number of prenyl groups added 1 (OltF v 2.1; Table 11): 5

YG289 ({CH2CO}-[dY]HDYRIWRYHTYPC; thioether N-14 (inferred))
Peak intensity, The number of prenyl groups added 0 (OltF v 2.1; Table 11): 1 | Peak intensity, The number of prenyl groups added 1 (OltF v 2.1; Table 11): 5

YG295 ({CH2CO}-[dY]ISWNEFNSPNWRFITC; thioether N-17 (inferred); not fully specified)
Peak intensity, The number of prenyl groups added 0 (OltF v 2.1; Table 11): 4 | Peak intensity, The number of prenyl groups added 1 (OltF v 2.1; Table 11): 3 | Peak intensity, The number of prenyl groups added 2 (OltF v 2.1; Table 11): 1

Met12: prenylated cyclic peptide identified by screening with MetAP1 as a target ({CH2CO}-[dY]YIIW(prenyl)HRHRIMTVCNSGGVS; thioether N-14 (inferred); not fully specified (C-terminus); also: C-terminus linked to its mRNA (mRNA display))
Peak intensity, The number of prenyl groups added 0 (KgpF; [1]): 3 | Peak intensity, The number of prenyl groups added 1 (KgpF; [1]): 4

Clone-M2: artificial cyclic peptide containing a plurality of Trps (Ac-[dY]SAWHGKDNYDWFC; thioether (positions not given here); not fully specified (bridges))
MALDI-TOF-MS peak intensity, Number of additions 1 (KgpF): 5 | MALDI-TOF-MS peak intensity, Number of additions 2 (KgpF): 1 | MALDI-TOF-MS peak intensity, Number of additions 0 (KgpF): 1

Clone-M9: artificial cyclic peptide containing a plurality of Trps (Ac-[dY]SFHWGLAVWDHNC; thioether (positions not given here); not fully specified (bridges))
MALDI-TOF-MS peak intensity, Number of additions 1 (KgpF): 1 | MALDI-TOF-MS peak intensity, Number of additions 2 (KgpF): 5 | MALDI-TOF-MS peak intensity, Number of additions 0 (KgpF): 1

Clone-M5: artificial cyclic peptide containing a plurality of Trps (Ac-[dY]LWSKNSQPWPESC; thioether (positions not given here); not fully specified (bridges))
MALDI-TOF-MS peak intensity, Number of additions 1 (KgpF): 5 | MALDI-TOF-MS peak intensity, Number of additions 2 (KgpF): 1 | MALDI-TOF-MS peak intensity, Number of additions 0 (KgpF): 3

Clone-M4: artificial cyclic peptide containing a plurality of Trps (Ac-[dY]RVSNTWWQRHRWC; thioether (positions not given here); not fully specified (bridges))
MALDI-TOF-MS peak intensity, Number of additions 1 (KgpF): 4 | MALDI-TOF-MS peak intensity, Number of additions 2 (KgpF): 1 | MALDI-TOF-MS peak intensity, Number of additions 3 (KgpF): 1 | MALDI-TOF-MS peak intensity, Number of additions 0 (KgpF): 1

Clone-M3: artificial cyclic peptide containing a plurality of Trps (Ac-[dY]SWSPAWVRQADIC; thioether (positions not given here); not fully specified (bridges))
MALDI-TOF-MS peak intensity, Number of additions 1 (KgpF): 1 | MALDI-TOF-MS peak intensity, Number of additions 2 (KgpF): 4 | MALDI-TOF-MS peak intensity, Number of additions 0 (KgpF): 1

Met13: cyclic peptide SEQ ID NO: 364 identified by screening with MetAP1 as a target ({CH2CO}-[dY]VTWKGPYRWRVCNSG; thioether N-13 (inferred); not fully specified)
Peak intensity, The number of prenyl groups added 0 (KgpF; [1]): 1 | Peak intensity, The number of prenyl groups added 1 (KgpF; [1]): 5 | Peak intensity, The number of prenyl groups added 2 (KgpF; [1]): 1

Met9: prenylated cyclic peptide identified by screening with MetAP1 as a target (Ac-[dY]KRKNCLVHVW(prenyl)HQCNSGGVS; thioether (positions not given here); not fully specified (C-terminus))
Peak intensity, The number of prenyl groups added 0 (KgpF; [1]): 1 | Peak intensity, The number of prenyl groups added 1 (KgpF; [1]): 5

Clone-M7: artificial cyclic peptide containing a plurality of Trps (Ac-[dY]LWVLRSDNTPWVC; thioether (positions not given here); not fully specified (bridges))
MALDI-TOF-MS peak intensity, Number of additions 1 (KgpF): 4 | MALDI-TOF-MS peak intensity, Number of additions 2 (KgpF): 5 | MALDI-TOF-MS peak intensity, Number of additions 0 (KgpF): 1

Met11: cyclic peptide SEQ ID NO: 363 identified by screening with MetAP1 as a target ({CH2CO}-[dY]HTDPFKAWHRRSCNSG; thioether N-14 (inferred); not fully specified)
Peak intensity, The number of prenyl groups added 0 (KgpF; [1]): 1 | Peak intensity, The number of prenyl groups added 1 (KgpF; [1]): 5

Clone-M8: artificial cyclic peptide containing a plurality of Trps (Ac-[dY]THEWPWRTGWTRC; thioether (positions not given here); not fully specified (bridges))
MALDI-TOF-MS peak intensity, Number of additions 1 (KgpF): 1 | MALDI-TOF-MS peak intensity, Number of additions 2 (KgpF): 5 | MALDI-TOF-MS peak intensity, Number of additions 3 (KgpF): 1 | MALDI-TOF-MS peak intensity, Number of additions 0 (KgpF): 1
